The source of these data is patent USRE47689E1, “Compounds for treating spinal muscular atrophy” (PTC Therapeutics, Inc., priority 2011, dated 2019).

A value given as a limit tells only on which side of the number the result lay.

For assay [1], the system named is SMN2 minigene (full length SMN2 minigene mRNA containing SMN2 exon 7). Kind of assay: SMN2 minigene mRNA splicing RT-qPCR assay in cultured cells. The assay is classed as cell-based, human. To be noted: HEK293H cells stably transfected with SMN2-A minigene, 24 hours, 7-point concentration curve, 1.5-fold relative to vehicle-treated cells; for EC (1.5-fold): Homo sapiens, HEK293-H, read-out: EC1.5x for production of full length SMN2 mRNA. How it is done: The reverse transcription-quantitative PCR-based (RT-qPCR) assay is used to quantify the level of the full length SMN2 minigene mRNA containing SMN2 exon 7 in a HEK293H cell line stably transfected with said minigene and treated with a test compound.
Protocol. HEK293H cells stably transfected with the SMN2-A minigene construct described above (10,000 cells/well) are seeded in 200 μL of cell culture medium (DMEM plus 10% FBS, with 200 μg/mL hygromycin) in 96-well flat-bottom plates and the plate is immediately swirled to ensure proper dispersal of cells, forming an even monolayer of cells. Cells are allowed to attach for at least 4-6 hours. […] A solution of test compound (1 μL, 200× in DMSO) is added to each cell-containing well and the plate is incubated for 24 hours in a cell culture incubator (37° C., 5% CO2, 100% relative humidity). 2 replicates are prepared for each test compound concentration. The cells are then lysed in Cells-To-Ct lysis buffer and the lysate is stored at −80° C.
The combination of these three oligonucleotides detects only SMN1 or SMN2 minigenes (RT-qPCR) and will not detect endogenous SMN1 or SMN2 genes.
The SMN forward and reverse primers are used at final concentrations of 0.4 μM.
The SMN2-minigene GAPDH mix (15 μL total volume) is prepared by combining 7.5 μL of 2×RT-PCR buffer, 0.4 μL of 25×RT-PCR enzyme mix, 0.75 μL of 20×GAPDH primer-probe mix, 4.0075 μL of water, 2 μL of 10-fold diluted cell lysate, 0.06 μL of 100 μM SMN forward primer, 0.06 μL of 100 μM SMN reverse primer, and 0.225 μL of 100 μM SMN probe.
PCR is carried out at the following temperatures for the indicated time: Step 1: 48° C. (15 min); Step 2: 95° C. (10 min); Step 3: 95° C. (15 sec); Step 4: 60° C. (1 min); then repeat Steps 3 and 4 for a total of 40 cycles.
Each reaction mixture contains both SMN2-A minigene and GAPDH primers/probe sets (multiplex design), allowing simultaneous measurement of the levels of two transcripts.
Two SMN spliced products are generated from the SMN2 minigene. The first spliced product containing exon 7, corresponding to full length SMN2 mRNA, is called SMN2mini FL. The second one lacking exon 7 is called SMN2mini Δ7.
The amplification efficiency E is calculated from the slope of the amplification curve for SMN2mini FL and GAPDH individually. The abundances of SMN2mini FL and GAPDH are then calculated as […], where Ct is the threshold value for each amplicon. The abundance of SMN2mini FL is normalized to GAPDH abundance. The normalized SMN2mini FL abundance from test compound-treated samples is then divided by normalized SMN2mini FL abundance from vehicle-treated cells to determine the level of SMN2 FL mRNA relative to vehicle control.
An EC1.5x for production of full length SMN2 mRNA between >3 μM and ≤30 μM is indicated by one star (*), an EC1.5x between >1 μM and ≤3 μM is indicated by two stars (**), an EC1.5x between >0.3 μM and ≤1 μM is indicated by three stars (***), an EC1.5x between >0.1 μM and ≤0.3 μM is indicated by four stars (****) and an EC1.5x≤0.1 μM is indicated by five stars (*****).
For orientation: In qPCR the cycle at which signal appears reflects the starting amount.

For another assay, the system named is Smn protein. Kind of assay: Smn protein assay in cultured cells (SMN HTRF). As to conditions: 48 hours; for EC1.5x (concentration giving 1.5-fold Smn protein increase): SMA Type 1 patient fibroblast cells (GM03813), 7-point concentration curve, SMN HTRF, concentration producing 1.5 times Smn protein vs DMSO vehicle control, read-out: EC1.5x for Smn protein expression; for maximum fold (Fold) increase of Smn protein: SMA patient fibroblast cells, 7-point concentration data, fold increase relative to vehicle control (SMN HTRF). The assay is classed as cell-based, human. How it is done: The SMN HTRF (homogeneous time resolved fluorescence) assay is used to quantify the level of Smn protein in SMA patient fibroblast cells treated with test compounds.
Protocol. Cells are thawed and cultured in DMEM-10% FBS for 72 hours. Cells are trypsinized, counted and resuspended to a concentration of 25,000 cells/mL in DMEM-10% FBS. […] 1 μL of test compound solution is transferred to cell-containing wells and cells are incubated for 48 hours in a cell culture incubator (37° C., 5% CO2, 100% relative humidity). Triplicate samples are set up for each test compound concentration. After 48 hours, the supernatant is removed from the wells and 25 μL of the RIPA lysis buffer, containing protease inhibitors, is added to the wells and incubated with shaking at room temperature for 1 hour. 25 μL of the diluent is added and then 35 μL of the resulting lysate is transferred to a 384-well plate, where each well contains 5 μL of the antibody solution (1:100 dilution of anti-SMN d2 and anti-SMN kryptate in SMN reconstitution buffer). The plate is centrifuged for 1 minute to bring the solution to the bottom of the wells, then incubated overnight at room temperature. Fluorescence for each well of the plate at 665 nm and 620 nm is measured on an EnVision multilabel plate reader (Perkin-Elmer).
The normalized fluorescence signal is calculated for each sample, Blank and vehicle control well by dividing the signal at 665 nm by the signal at 620 nm. Normalizing the signal accounts for possible fluorescence quenching due to the matrix effect of the lysate. The ΔF value (a measurement of Smn protein abundance) for each sample well is calculated by subtracting the normalized average fluorescence for the Blank control wells from the normalized fluorescence for each sample well and then dividing this difference by the normalized average fluorescence for the Blank control wells. The resulting ΔF value for each sample well represents the Smn protein abundance from test compound-treated samples. The ΔF value for each sample well is divided by the ΔF value for the vehicle control wells to calculate the fold increase in Smn protein abundance relative to the vehicle control.
An EC1.5x for Smn protein expression between >3 μM and ≤10 μM is indicated by one star (*), an EC1.5x between >1 and ≤3 μM is indicated by two stars (**), an EC1.5x between >0.3 μM and ≤1 μM is indicated by three stars (***) and an EC1.5x≤0.3 μM is indicated by four stars (****).
On the technique in general: In TR-FRET formats the signal depends on donor and acceptor labels being close together.

For `Cc1cn2cc(-c3cc4ccc(N5CCN[C@@H](C)C5)cc4oc3=O)nc2c(C)n1` [Compound 537, 3-(6,8-dimethylimidazo[1,2-a]pyrazin-2-yl)-7-[(3S)-3-methylpiperazin-1-yl]-2H-chromen-2-one], the EC (1.5-fold) in assay [1] is less than 0.1 µM. Moreover, in the assay with Smn protein, the EC1.5x (concentration giving 1.5-fold Smn protein increase) is less than 300 nM and the “maximum fold (Fold) increase of Smn protein” value (from here on “maximum fold (Fold) increase”) is recorded as “***** (fold increase >1.65)”.

On to `Cc1nc(Cl)cn2cc(-c3cc4ccc(N5C[C@@H]6C[C@H]5CN6C)cc4oc3=O)nc12` [Compound 787, 3-(6-chloro-8-methylimidazo[1,2-a]pyrazin-2-yl)-7-[(1S,4S)-5-methyl-2,5-diazabicyclo[2.2.1]hept-2-yl]-2H-chromen-2-one], for which the EC (1.5-fold) in assay [1] is less than 0.1 µM. For the same compound, in the assay on Smn protein, the EC1.5x (concentration giving 1.5-fold Smn protein increase) lay in the range of 300 to 1000 nM; the “maximum fold (Fold) increase” value is “*** (fold increase between >1.35 and ≤1.5)”.

As for `Cc1cn2cc(-c3cc4ccc(N5CCN6CCC[C@H]6C5)cc4oc3=O)nc2cn1` [Compound 609, 7-[(8aS)-hexahydropyrrolo[1,2-a]pyrazin-2(1H)-yl]-3-(6-methylimidazo[1,2-a]pyrazin-2-yl)-2H-chromen-2-one], the EC (1.5-fold) in assay [1] was less than 0.1 µM. Besides, in the assay with Smn protein, the EC1.5x (concentration giving 1.5-fold Smn protein increase) was less than 300 nM and the “maximum fold (Fold) increase” value was “***** (fold increase >1.65)”.

For the compound `CN(C)[C@H]1[C@@H]2CN(c3ccc4cc(-c5cn6cccnc6n5)c(=O)oc4c3)C[C@@H]21` [Compound 439, 7-[(1R,5S,6s)-6-(dimethylamino)-3-azabicyclo[3.1.0]hex-3-yl]-3-(imidazo[1,2-a]pyrimidin-2-yl)-2H-chromen-2-one], in assay [1], the “EC1.5x for production of full length SMN2 mRNA” value was “* (between >3 μM and ≤30 μM)”. In addition, the “maximum fold (Fold) increase” value in the assay on Smn protein was “** (fold increase between >1.2 and ≤1.35)”.

Regarding `Cc1cn2cc(-c3cc4ccc(N5CC6(CC(N)C6)C5)cc4oc3=O)nc2c(C)n1` [Compound 977, 7-(6-amino-2-azaspiro[3.3]hept-2-yl)-3-(6,8-dimethylimidazo[1,2-a]pyrazin-2-yl)-2H-chromen-2-one], the EC (1.5-fold) in assay [1] lay in the range of 1 to 3 µM. Further, the “maximum fold (Fold) increase” value in the assay on Smn protein is listed as “* (maximum fold increase of ≤1.2)”.

For `Cc1cn2cc(-c3cc4ccc(N5CCCN(C)CC5)cc4oc3=O)cc2c(C)n1` [Compound 681, 3-(1,3-dimethylpyrrolo[1,2-a]pyrazin-7-yl)-7-(4-methyl-1,4-diazepan-1-yl)-2H-chromen-2-one], the EC (1.5-fold) in assay [1] was less than 0.1 µM. For the same compound, in the assay with Smn protein, the EC1.5x (concentration giving 1.5-fold Smn protein increase) is less than 300 nM; the “maximum fold (Fold) increase” value was “**** (fold increase between >1.5 and ≤1.65)”.

Turning to `CCCN1CCN(c2ccc3cc(-c4cc5ccccn5n4)c(=O)oc3c2)CC1` [Compound 195, 7-(4-propylpiperazin-1-yl)-3-(pyrazolo[1,5-a]pyridin-2-yl)-2H-chromen-2-one], the EC (1.5-fold) in assay [1] lay in the range of 1 to 3 µM. In the assay on Smn protein, the “maximum fold (Fold) increase” value was “* (maximum fold increase of ≤1.2)”.

For the compound `COc1ccc(-c2cc3c(F)cc(N4CCN(C)CC4)cc3oc2=O)cc1OC` [Compound 405, 3-(3,4-dimethoxyphenyl)-5-fluoro-7-(4-methylpiperazin-1-yl)-2H-chromen-2-one], the EC (1.5-fold) in assay [1] lay in the range of 3 to 30 µM. Further, the “maximum fold (Fold) increase” value with Smn protein was “** (fold increase between >1.2 and ≤1.35)”.

Turning to `Cc1cn2cc(-c3cc4ccc(N5CC6(CN(C)C6)C5)cc4oc3=O)nc2c(C)n1` [Compound 972, 3-(6,8-dimethylimidazo[1,2-a]pyrazin-2-yl)-7-(6-methyl-2,6-diazaspiro[3.3]hept-2-yl)-2H-chromen-2-one], the EC (1.5-fold) in assay [1] was in the range of 0.3 to 1 µM. In the assay with Smn protein, the EC1.5x (concentration giving 1.5-fold Smn protein increase) was in the range of 3000 to 10000 nM; the “maximum fold (Fold) increase” value was “*** (fold increase between >1.35 and ≤1.5)”.

For the compound `Cc1nc2ccc(-c3cc4ccc(C5=CCNCC5)cc4oc3=O)nn2c1C1=CCNCC1` [Cpd 845, 3-[2-methyl-3-(1,2,3,6-tetrahydropyridin-4-yl)imidazo[1,2-b]pyridazin-6-yl]-7-(1,2,3,6-tetrahydropyridin-4-yl)-2H-chromen-2-one], the “maximum fold (Fold) increase” value in the assay on Smn protein was “* (maximum fold increase of ≤1.2)”.
